What was measured:
Details in all cases: 48 h
[1] = tested on: P12-Ichikawa; test: AUC of viability dose-response curve (% viability x log10 dose units); higher = less sensitive
In short: (§1)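 Area under the curve was integrated by trapezoidal rule from a log-logistic fit of normalised viability, with curves exceeding full viability scaled and quality-control failures removed. The fit had four parameters over log10 doses. Viability came from CellTiter-Glo One luminescence, normalised per plate to DMSO and cell-free wells, after leukemia cells adapted to each medium (500 or 1000 cells/well, 1536-well plates) were exposed to library compounds in DMSO for 48 h at 37°C. The 11 threefold doses ran from 47 μM to 0.79 nM.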

[2] = tested on: NOMO1; test: as above
In short: as §1

[3] = tested on: SEM cells; test: as above
In short: as §1

[4] = tested on: P12-Ichikawa; test: cell viability relative to DMSO control; higher = less cytotoxic
In short: (§2)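 NOMO1 or SEM cells were plated at 500 cells/well and P12-Ichikawa cells at 1000 cells/well in 1536-well plates (5 μl), after each leukemia line had been adapted for at least four passages in each medium. Pin dosing delivered library compounds in DMSO at 11 threefold concentrations, 47 μM to 0.79 nM. CellTiter-Glo One luminescence was read after 48 h at 37°C. Viability is reported as a per-plate percentage of DMSO wells, with cell-free wells as background.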

[5] = tested on: NOMO1; test: as above
In short: as §2

[6] = tested on: SEM cells; test: as above
In short: as §2

CC(=O)CC(C1=CC=CC=C1)C/2=C(O)/C3=CC=CC=C3OC2=O (configuration not stated)
AUC of viability dose-response curve
Details	[1]	[2]	[3]
HPLM + 10% dialyzed FBS	462	408	433
RPMI 5 mM glucose + 10% FBS	469	447	403
RPMI 5 mM glucose + 10% dialyzed FBS	465	471	431

cell viability [%]
Details	[4]	[5]	[6]
HPLM + 10% dialyzed FBS, 0.000781 µM	106	96.8	80.7
HPLM + 10% dialyzed FBS, 0.00234 µM	112	126	101
HPLM + 10% dialyzed FBS, 0.00702 µM	108	111	114
HPLM + 10% dialyzed FBS, 0.0211 µM	117	129	71.7
HPLM + 10% dialyzed FBS, 0.0632 µM	111	124	119
HPLM + 10% dialyzed FBS, 0.19 µM	125	132	114
HPLM + 10% dialyzed FBS, 0.569 µM	123	132	103
HPLM + 10% dialyzed FBS, 1.71 µM	120	128	110
HPLM + 10% dialyzed FBS, 5.12 µM	113	147	116
HPLM + 10% dialyzed FBS, 15.4 µM	118	143	113
HPLM + 10% dialyzed FBS, 46.1 µM	123	155	120
RPMI 5 mM glucose + 10% FBS, 0.000781 µM	105	–	110
RPMI 5 mM glucose + 10% FBS, 0.00234 µM	120	–	104
RPMI 5 mM glucose + 10% FBS, 0.00702 µM	130	–	105
RPMI 5 mM glucose + 10% FBS, 0.0211 µM	128	–	73.1
RPMI 5 mM glucose + 10% FBS, 0.0632 µM	130	–	105
RPMI 5 mM glucose + 10% FBS, 0.19 µM	132	–	105
RPMI 5 mM glucose + 10% FBS, 0.569 µM	132	–	115
RPMI 5 mM glucose + 10% FBS, 1.71 µM	127	–	118
RPMI 5 mM glucose + 10% FBS, 5.12 µM	128	–	115
RPMI 5 mM glucose + 10% FBS, 15.4 µM	132	–	125
RPMI 5 mM glucose + 10% FBS, 46.1 µM	124	–	137
RPMI 5 mM glucose + 10% dialyzed FBS, 0.000781 µM	106	109	84.4
RPMI 5 mM glucose + 10% dialyzed FBS, 0.00234 µM	122	116	103
RPMI 5 mM glucose + 10% dialyzed FBS, 0.00702 µM	116	128	114
RPMI 5 mM glucose + 10% dialyzed FBS, 0.0211 µM	125	123	73.4
RPMI 5 mM glucose + 10% dialyzed FBS, 0.0632 µM	128	120	111
RPMI 5 mM glucose + 10% dialyzed FBS, 0.19 µM	127	126	123
RPMI 5 mM glucose + 10% dialyzed FBS, 0.569 µM	125	127	119
RPMI 5 mM glucose + 10% dialyzed FBS, 1.71 µM	121	121	125
RPMI 5 mM glucose + 10% dialyzed FBS, 5.12 µM	132	124	128
RPMI 5 mM glucose + 10% dialyzed FBS, 15.4 µM	132	127	126
RPMI 5 mM glucose + 10% dialyzed FBS, 46.1 µM	129	129	123
